Columns and labels:
[1] = system: A549 cells; assay: Wound-healing migration assay; type: cell-based, human; conditions: compounds 2 μM, senexin A 5 μM, pirfenidone 1 mM; TGF-β1 10 ng/mL; 24 or 48 h
Description: A549 cells were incubated in six-well plates until reaching 90% confluency, scratched with a pipette tip, and immediately photographed (0 h). Cells were incubated with or without compound k (2 μM), senexin A (5 μM), or pirfenidone (1 mM) for 1 h, then treated with TGF-β1 (10 ng/mL) and allowed to migrate into the wound area for 24 or 48 h, and photographed. Cell migration into the wound was quantified using ImageJ software; the solid line indicates time zero. Quantitative assessment of the mean number of cells in the denuded zone is expressed as the mean±SEM from three independent experiments. **p<0.01 compared to the control group; ##p<0.01 and ###p<0.001 compared to TGF-β1-treated group.
Cells were seeded in six-well plates and cultured to 90% confluency, at which time the cellular monolayer was wounded with a sterile 10-μL pipette tip and washed with culture medium to remove detached cells. Cells were incubated in the presence or absence of test compounds for 24 h and photographed. The wound closure percentages were subsequently determined using ImageJ software (National Institutes of Health, USA).

[2] = system: A549 cells; assay: TGF-β1-induced oxidative stress (MDA, Nox4); type: cell-based, human; conditions: compounds 2 μM, TGF-β1 10 ng/ml 24 h
Description: A549 cells were incubated with compounds k, b, a (2 μM), senexin A (5 μM), or pirfenidone (1 mM) for 1 h, followed by treatment with 10 ng/ml TGF-β1 for a further 24 h. Malondialdehyde (MDA) (FIG. 10A) and Nox4 (FIG. 10B) levels were detected. ***p<0.001 compared to the control group; #p<0.05, ##p<0.01, and ###p<0.001 compared to the TGF-β1-treated group.
An end product of lipid peroxidation, malondialdehyde (MDA), was measured by spectrophotometry at a wavelength of 532 nm using malondialdehyde bis(dimethyl acetal) as the standard as per the assay protocol (Cell Biolabs, USA).

[3] = system: A549 cells; assay: TGF-β1-induced EMT protein expression, western blot; type: cell-based, human; conditions: test compounds 2 μM, senexin A 5 μM, pirfenidone 1 mM; TGF-β1 10 ng/mL
Description: FIGS. 4A-4B show the inhibition of epithelial-to-mesenchymal transition protein expressions by CDK8 inhibitors in human alveolar epithelial cells. […] Cell lysates were subjected to a Western blot analysis using the indicated antibodies. Results are shown as the mean t SEM from three independent experiments. *p<0.05, and ***p<0.001 compared to the control group; #p<0.05, ##p<0.01, and ###p<0.001 compared to the TGF-β1-treated group. […] Cell viabilities were determined by an MTT assay. Results are shown as the mean t SEM of three independent experiments.
(§1) Cells (106) were incubated for 10 min at 4° C. in lysis buffer (20 mM HEPES at pH 7.4, 2 mM EGTA, 50 mM β-glycerophosphate, 0.1% Triton X-100, 10% glycerol, 1 mM DTT, 1 μg/mL of leupeptin, 5 μg/mL of aprotinin, 1 mM phenylmethylsulfonyl fluoride, and 1 mM sodium orthovanadate), scraped off, incubated on ice for an additional 10 min, and centrifuged at 17,000 g for 30 min at 4° C. Protein samples (20 μg) were then electrophoresed on SDS-polyacrylamide gel electrophoresis (PAGE) gels and transferred to a nitrocellulose membrane, which was then blocked by incubation for 30 min at room temperature with 5% bovine serum albumin (BSA) in Tris-buffered saline with 0.1% Tween-20 (TBST). Immunoblotting was performed by overnight incubation at 4° C. with primary antibodies in TBST, followed by incubation for 1 h at room temperature with horseradish peroxidase (HRP)-conjugated secondary antibodies. Bound antibodies were measured using enhanced chemiluminescence (ECL) reagent (GE Healthcare, UK) and exposed to photographic film.

[4] = biological target: CDK8 (Homo sapiens (Human), UniProt P49336); assay: LanthaScreen Eu Binding Assay, Thermo Fisher SelectScreen kinase service; conditions: for inhibition at 10 µM: read-out: CDK8 Inhibition percentage at 10 μM; for IC50: read-out: Inhibition of CDK8 IC50
Description: Compounds were tested for kinase inhibitory activity using the Thermo Fisher SelectScreen service (www.thermofisher.com/selectscreen). For CDK8, the LanthaScreen Eu Binding Assay was used. Briefly, the assay employed utilizes a fluorescent tracer to a given kinase. This is used to detect the addition of an anti-tag antibody. When the tracer and antibody bind to the targeted kinase, the Forster resonance energy transfer is measured. When a kinase inhibitor is added to the assay, the tracer/kinase binding will be disrupted, producing low FRET detection and indicating kinase inhibitory activity. Evaluation of kinase activity of additional kinase targets utilized the LanthaScreen binding assay or the Z′-Lyte activity assay provided by Thermo Fisher SelectScreen service. The IC50 values were determined using sequential doses, and the inhibition curves were provided by Thermo Fisher Scientific.
The fragment-based drug design strategy in this study led to optimized CDK8 inhibitors with promising results. CDK8-inhibitory activities of the compounds (a-n) designed by this fragment-based drug design strategy were tested using the SelectScreen kinase service of ThermoFisher Scientific. The inhibitory effects of the 14 compounds and the referenced compound were tested at a concentration of 10 μM.

[5] = system: A549 cells; assay: Nuclear p-Smad3 T179 and RNA polymerase II pS2/S5 after TGF-β1, fractionation and western blot; type: cell-based, human; conditions: compound k 5 μM, senexin A 5 μM, pirfenidone 1 mM; TGF-β1 10 ng/ml 3 h
Description: FIGS. 8A-8B show the inhibitory effects of cellular distributions of TGF-β1-induced p-Smad3 T179, RNA polymerase II pS2/S5, and Smad3 after treatment with compound k. Human alveolar epithelial A549 cells were incubated with compound k (5 μM), senexin A (5 μM), or pirfenidone (1 mM) for 1 h, followed by stimulation with TGF-β1 (10 ng/ml) for 3 h. Protein expressions in the cytoplasmic and nuclear fractions were subjected to a Western blot analysis using the indicated antibodies. α-Tubulin and histone H3 served as loading controls for the cytoplasmic and nuclear fractions, respectively. Results are shown as the mean±SEM of three independent experiments. **p<0.01 and ***p<0.001 compared to the control group; #p<0.05 and ##p<0.01 compared to the TGF-β1-treated group.
as §1
A Nuclear/Cytosol Fractionation Kit (Biovision, USA) was used to separate the cytosolic and nuclear fractions. […]

Chain of CDK8 (P49336 whole entry, looked up): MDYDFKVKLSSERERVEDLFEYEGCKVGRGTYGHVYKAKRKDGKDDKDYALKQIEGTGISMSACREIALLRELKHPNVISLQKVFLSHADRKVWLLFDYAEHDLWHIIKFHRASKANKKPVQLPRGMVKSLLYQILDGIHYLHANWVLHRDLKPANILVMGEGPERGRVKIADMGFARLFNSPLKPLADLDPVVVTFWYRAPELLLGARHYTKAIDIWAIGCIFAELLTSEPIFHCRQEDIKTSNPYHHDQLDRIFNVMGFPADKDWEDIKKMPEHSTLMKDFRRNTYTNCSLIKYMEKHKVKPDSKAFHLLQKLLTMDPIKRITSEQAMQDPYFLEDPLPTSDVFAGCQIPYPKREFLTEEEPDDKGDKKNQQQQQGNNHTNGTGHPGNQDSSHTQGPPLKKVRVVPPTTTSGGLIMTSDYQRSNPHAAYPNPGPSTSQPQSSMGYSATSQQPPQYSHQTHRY
Chain of CDK8 (P24863 whole entry partner, looked up): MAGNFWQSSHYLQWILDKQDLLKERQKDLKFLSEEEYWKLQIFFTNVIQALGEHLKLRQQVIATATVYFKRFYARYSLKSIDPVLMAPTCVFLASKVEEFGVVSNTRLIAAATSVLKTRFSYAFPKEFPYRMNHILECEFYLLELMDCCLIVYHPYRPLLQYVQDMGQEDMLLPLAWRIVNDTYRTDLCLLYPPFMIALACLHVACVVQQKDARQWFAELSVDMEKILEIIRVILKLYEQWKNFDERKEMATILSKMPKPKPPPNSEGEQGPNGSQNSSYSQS

SMILES	inhibition at 10 µM [4]	IC50 [4]	CDK8 Inhibition percentage at 10 μM [4]	also measured
CC(C)=C1C(=O)Nc2ccc(S(=O)(=O)Nc3ccc(Oc4ccc([N+](=O)[O-])cc4)cc3)cc21 [Compound a, N-(4-(4-Nitrophenoxy)phenyl)-2-oxo-3-(propan-2-ylidene)indoline-5-sulfonamide]	48%	–	–	inhibition of cell migration [1]: less inhibition; TGF-β1-caused oxidative stress (MDA and Nox4 levels) [2]: less-potent inhibition; TGF-β1-triggered EMT protein expressions [3]: no significant reduction
CC(C)=C1C(=O)Nc2ccc(S(=O)(=O)Nc3ccc(Nc4ccccc4)cc3)cc21 [Compound b, 2-Oxo-N-(4-(phenylamino)phenyl)-3-(propan-2-ylidene)indoline-5-sulfonamide]	76%	1570 nM	–	inhibition of cell migration [1]: less inhibition; TGF-β1-caused oxidative stress (MDA and Nox4 levels) [2]: less-potent inhibition; TGF-β1-triggered EMT protein expressions [3]: slight reduction
CC(C)=C1C(=O)Nc2ccc(S(=O)(=O)Nc3ccc(NC(=O)c4ccccc4)cc3)cc21 [Compound c, N-(4-((2-Oxo-3-(propan-2-ylidene)indoline)-5-sulfonamido)phenyl)benzamide]	–	–	33%	–
CC(C)=C1C(=O)Nc2ccc(S(=O)(=O)Nc3cc(-c4ccc(C)cc4)[nH]n3)cc21 [Compound f, 2-Oxo-3-(propan-2-ylidene)-N-(5-(p-tolyl)-1H-pyrazol-3-yl) indoline-5-sulfonamide]	–	798 nM	89%	–
CC(C)=C1C(=O)Nc2ccc(S(=O)(=O)Nc3nnc(-c4ccccc4)s3)cc21 [Compound g, 2-Oxo-N-(5-Phenyl-1,3,4-thiadiazol-2-yl)-3-(propan-2-ylidene) indoline-5-sulfonamide]	–	338 nM	99%	–
CC(C)=C1C(=O)Nc2ccc(S(=O)(=O)Nc3ccc(-n4ccnc4)cc3)cc21 [Compound i, N-(4-(1H-imidazol-1-yl)phenyl)-2-oxo-3-(propan-2-ylidene) indoline-5-sulfonamide]	–	945 nM	92%	–
CNC(=O)c1cc(Oc2ccc(NS(=O)(=O)c3ccc4c(c3)C(=C(C)C)C(=O)N4)cc2)ccn1 [Compound j, N-Methyl-4-(4-((2-oxo-3-(propan-2-ylidene)indoline)-5-sulfonamido)phenoxy)picolinamide]	–	1240 nM	85%	–
CNC(=O)c1ccc(NS(=O)(=O)c2ccc3c(c2)C(=C(C)C)C(=O)N3)cc1F [Compound l, 2-Fluoro-N-methyl-4-((2-oxo-3-(propan-2-ylidene)indoline)-5-sulfonamido)benzamide]	–	652 nM	92%	–
Cc1ccc(=O)n(-c2ccccc2)c1 [pirfenidone, reference compound]	–	–	–	phosphorylation of p-Smad3 T179 and RNA Pol II pSer2/5 [5]: less-potent inhibition; TGF-β1-triggered EMT protein expressions [3]: slight inhibition

Second part, led by results:

inhibition at 10 µM [4]	IC50 [4]	SMILES	CDK8 Inhibition percentage at 10 μM [4]	also measured
99%	380 nM	CC(C)=C1C(=O)Nc2ccc(S(=O)(=O)Nc3ccc(C(=O)c4ccccc4)cc3)cc21 [Compound d, N-(4-Benzoylphenyl)-2-oxo-3-(propan-2-ylidene)indoline-5-sulfonamide]	–	–
82%	1640 nM	CC(C)=C1C(=O)Nc2ccc(S(=O)(=O)Nc3cc(-c4ccccc4)[nH]n3)cc21 [Compound e, 2-Oxo-N-(5-phenyl-1H-pyrazol-3-yl)-3-(propan-2-ylidene)indoline-5-sulfonamide]	–	–
91%	870 nM	CC(C)=C1C(=O)Nc2ccc(S(=O)(=O)Nc3nc4ccccc4s3)cc21 [Compound h, N-(Benzo[d]thiazol-2-yl)-2-oxo-3-(propan-2-ylidene)indoline-5-sulfonamide]	–	–
46%	–	CC(C)=C1C(=O)Nc2ccc(S(=O)(=O)Nc3ccc(C)c(Nc4nccc(-c5cccnc5)n4)c3)cc21 [Compound m, N-(4-Methyl-3-((4-(pyridin-3-yl)pyrimidin-2-yl)amino)phenyl)-2-oxo-3-(propan-2-ylidene)indoline-5-sulfonamide]	–	–
74%	3000 nM	CC(C)=C1C(=O)Nc2ccc(S(=O)(=O)Nc3cccc4c(=O)[nH][nH]c(=O)c34)cc21 [Compound n, N-(1,4-Dioxo-1,2,3,4-tetrahydrophthalazin-5-yl)-2-oxo-3-(propan-2-ylidene)indoline-5-sulfonamide]	–	–
87%	1680 nM	CC(=O)c1cccc(NS(=O)(=O)c2ccc3c(c2)C(=C(C)C)C(=O)N3)c1 [Reference Compound, N-(3-acetylphenyl)-2-oxo-3-(propan-2-ylidene)-indoline-5-sulfonamide, reference compound]	–	–

Source: patent US20250109120A1, “INDOLINE DERIVATIVES FOR TREATMENT AND/OR PREVENTION OF TUMOR OR CELL PROLIFERATIVE AND FIBROSIS DISEASES” (NATIONAL TAIWAN UNIVERSITY, priority 2023, published 2025)
